The values below come from patent publication US9365512B2, “Isoindoline derivatives, pharmaceutical compositions containing them, and their use in therapy” (AbbVie Deutschland GmbH & Co. KG, priority 2012, dated 2016).

Data set [1] in a line: Metabolic stability in human liver microsomes (microsomal clearance). In kind it is in vitro ADME. The conditions noted are these: 0.5 μM test substance, 0.25 mg microsomal protein/ml, pH 7.4, 37° C., NADPH. The method, then: The metabolic stability of a compound can be measured for example by incubating a solution of this compound with liver microsomes from particular species (for example rat, dog or human) and determining the half-life of the compound under these conditions (RS Obach, Curr Opin Drug Discov Devel. 2001, 4, 36-44). It is possible in this connection to conclude from an observed longer half-life that the metabolic stability of the compound is improved. The stability in the presence of human liver microsomes is of particular interest because it makes it possible to predict the metabolic degradation of the compound in the human liver. Compounds with increased metabolic stability (measured in the liver microsome test) are therefore probably also degraded more slowly in the liver. The slower metabolic degradation in the liver may lead to higher and/or longer-lasting concentrations (active levels) of the compound in the body, so that the elimination half-life of the compounds of the invention is increased. Increased and/or longer-lasting active levels may lead to a better activity of the compound in therapeutic treatment. […]
Metabolic stability was determined as follows:
0.5 μM test substance was preincubated together with human liver microsomes (0.25 mg of microsomal protein/ml) in 0.05 M potassium phosphate buffer of pH 7.4 in microtiter plates at 37° C. for 5 min. […] The samples were frozen until analyzed. The remaining concentration of undegraded test substance was determined by LC MSMS. The half-life (T½) was determined from the gradient of the signal of test substance/unit time plot, allowing to calculate the half-life of the test substance, assuming first order kinetics, from the decrease in the concentration of the compound with time. The microsomal clearance (mCl) was calculated from mCl=ln 2/T½/(content of microsomal protein in mg/ml)×1000 (modified from references: Di, The Society for Biomolecular Screening, 2003, 453-462; Obach, DMD, 1999 vol 27. N 11, 1350-1359).
A general note: Liver microsomes are a subcellular fraction often used to study metabolism.

Another data set concerns the target T1, human GlyT1c transporter (Homo sapiens, UniProt P48067).
T1 construct: expressed in transfected cells; host or cells: CHO cells (recombinant; membranes)
T1 sequence (P48067 1-706): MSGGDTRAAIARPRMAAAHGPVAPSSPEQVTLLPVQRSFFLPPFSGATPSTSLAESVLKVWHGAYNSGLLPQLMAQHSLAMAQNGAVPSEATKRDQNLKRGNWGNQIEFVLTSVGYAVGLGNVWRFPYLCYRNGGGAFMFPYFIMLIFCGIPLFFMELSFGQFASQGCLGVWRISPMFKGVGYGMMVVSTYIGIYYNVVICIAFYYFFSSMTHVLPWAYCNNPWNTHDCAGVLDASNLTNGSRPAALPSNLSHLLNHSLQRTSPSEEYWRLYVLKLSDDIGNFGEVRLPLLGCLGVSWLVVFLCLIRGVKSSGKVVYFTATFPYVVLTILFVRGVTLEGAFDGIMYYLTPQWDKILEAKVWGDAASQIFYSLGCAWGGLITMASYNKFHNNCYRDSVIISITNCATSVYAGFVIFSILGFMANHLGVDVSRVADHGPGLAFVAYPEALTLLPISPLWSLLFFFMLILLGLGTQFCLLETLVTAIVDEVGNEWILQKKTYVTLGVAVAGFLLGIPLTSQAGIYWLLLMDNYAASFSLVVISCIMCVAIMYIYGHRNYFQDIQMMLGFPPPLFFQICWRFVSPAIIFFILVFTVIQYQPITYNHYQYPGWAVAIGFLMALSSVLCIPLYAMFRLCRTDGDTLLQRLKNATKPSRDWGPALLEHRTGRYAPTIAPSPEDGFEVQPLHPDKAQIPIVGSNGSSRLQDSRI
The data set can be described thus: Radioligand binding assay using recombinant CHO cell membranes expressing human GlyT1. Particulars: read-out: radioligand binding Kiapp. The method, then:
2. Radioligand Binding Assays Using Recombinant CHO Cell Membranes Expressing Human GlyT1:
Radioligand binding to human GlyT1c transporter-expressing membranes was determined as described in Mezler et al., Molecular Pharmacology 74:1705-1715, 2008.

Consider `Cn1cnc(S(=O)(=O)NCc2ccc3c(c2)C(Cc2ccccc2)NC3)c1` (stereo not drawn) [Example 4, N-[(3-Benzylisoindolin-5-yl)methyl]-1-methyl-1H-imidazole-4-sulfonamide], for which the “human mCl” value in data set [1] is less than 1 µL/min/mg. In addition, on human GlyT1c transporter, the Ki was less than 1000 nM.

Regarding `Cn1cnc(S(=O)(=O)NCCOc2ccc3c(c2)C(Cc2ccccc2)NC3)c1` (stereo not drawn) [Example 5, N-[2-(3-Benzylisoindolin-5-yl)oxyethyl]-1-methyl-1H-imidazole-4-sulfonamide], in data set [1], the “human mCl” value is less than 1 µL/min/mg. The Ki at human GlyT1c transporter was less than 100 nM.

In the case of `Cn1cc(S(=O)(=O)NCCOc2ccc3c(c2)C(Cc2ccccc2)NC3)cn1` (stereo not drawn) [Example 7, N-[2-(3-Benzylisoindolin-5-yl)oxyethyl]-1-methyl-1H-pyrazole-4-sulfonamide], the “human mCl” value in data set [1] is less than 10 µL/min/mg. Further, the Ki at human GlyT1c transporter was less than 100 nM.
